From PubChem BioAssay AID624285 (Broad Institute, 2012)
The source made the active and inactive calls.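 The calls were made as follows: active = signal-decreasing dose-response curve whose fitted half-maximal concentration is at or below twice the highest valid tested dose; inconclusive = flat fit at 30 to 70% signal loss, or poor fit; inactive = the rest.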

Tested on: NIH3T3/HeLa viability, CellTiter-Glo ATP luminescence, 24 h
Assay: cytotoxicity in mammalian cells, dose response, cytotoxicity control for PDI inhibitor project, cell-based, 24 h, luminescence, cherry-picked samples (AID 624285)

| SMILES | AC50 |
| --- | --- |
| C[C@]12CC[C@@H]3c4ccc(O)cc4C(=O)C[C@H]3[C@@H]1CC[C@@H]2O | > 70 µM (inactive) |
| CCOC(=O)c1c(CN(C)C)n(-c2ccccc2)c2cc(Br)c(O)cc12 | > 70 µM (inactive) |
| CC[C@]12c3[nH]c4cc(-c5ccco5)ccc4c3CCN1C(=O)[C@@H](CC(=O)NCC13CC4CC(CC(C4)C1)C3)C[C@@H]2C(=O)N1CCN(C(=O)c2ccco2)CC1 | > 70 µM (inactive) |
| C[C@@H]1CN([C@@H](C)CO)C(=O)Cc2cc(NC(=O)Nc3ccccc3)ccc2O[C@@H]1CN(C)Cc1ccccc1 | > 60 µM (inactive) |
| O=C1N[C@@H](Cc2c[nH]c3ccccc23)COC(=O)[C@@H](Cc2ccc(F)cc2)C/C=C\C[C@H]1CC(=O)N(CCO)Cc1ccccc1 | 30.2 µM |
| CCOC(=O)C1(CCOc2ccccc2)CCN(Cc2ccc(O)c(Cl)c2)CC1 | > 70 µM (inactive) |
| Cc1cc(O)cc2c1C1CCC3(C)C(=O)CCC3C1C=C2 (configuration not stated) | > 70 µM (inactive) |
| COc1cc2cc(C(=O)N3CC(COS(C)(=O)=O)c4ccc(O)cc43)[nH]c2c(OC)c1OC (configuration not stated) | 0.0396 µM |
| CCOC(=O)C1=C(c2ccccc2)N=c2s/c(=C\c3cccc(O)c3)c(=O)n2C1c1cccs1 (configuration not stated) | 23 µM |
| Nc1ccc(C(=O)NN2C(=O)[C@H](Cl)C2c2ccc(Cl)cc2)cc1 (some centres not stated) | 6.04 µM |
| O=C(NC(Cc1c[nH]c2ccccc12)C(=O)N/N=C/c1cccnc1)c1cccs1 (configuration not stated) | > 70 µM (inactive) |
| COc1ccc(C2c3ccc(O)cc3Oc3ncn(CCN4CCOCC4)c(=N)c32)cc1OC (configuration not stated) | > 70 µM (inactive) |
| CN1CCN(CCOC2c3ccccc3CSc3ccc(Cl)cc32)CC1 (configuration not stated) | 30.5 µM |
| O=C(CCC1CCCCC1)NCCN1C2=NC[C@H](Cc3ccc(O)cc3)N2C[C@H]1Cc1ccc(O)cc1 | > 70 µM (inactive) |
| CCN1CCN(Cc2ccc(NC(=O)c3cc(NC(=O)c4cc(-c5ccc(OC)cc5)n[nH]4)cc(OC)c3)cc2C(F)(F)F)CC1 | 6.45 µM |
| COc1ccc(C(=O)c2c(C)c3cc(C)ccc3n2CC(O)CN2CCOCC2)cc1 (configuration not stated) | > 70 µM (inactive) |
| CC(=O)Oc1ccccc1C(=O)C=Cc1cccc([N+](=O)[O-])c1 | 5.89 µM |
| CCCN(CCC)S(=O)(=O)c1ccc(C(=O)Nc2nnc(COC)o2)cc1 | > 70 µM (inactive) |
| NNC(=O)c1cc(-c2ccc(O)cc2)nc2ccc(Br)cc12 | > 70 µM (inactive) |
| Cc1nnc(SCc2cc(=O)oc3cc(O)ccc23)n1Cc1ccccc1 | > 70 µM (inactive) |
| COc1ccc(Oc2ccc(/C=C/C(=O)c3ccc(O)cc3)cc2[N+](=O)[O-])cc1 | 12.4 µM |
| CC1(c2ccc3ccccc3c2)NC(=O)N(CC(=O)Nc2cccc(S(=O)(=O)N3CCOCC3)c2)C1=O (configuration not stated) | > 70 µM (inactive) |
| CN1CCN(Cc2nc3ccccc3c(=O)n2Cc2nc(-c3ccc4ccccc4c3)cs2)CC1 | 7.27 µM |
| CS(=O)(=O)c1ccc(C(=O)OCC(=O)N2CCN(CCC3CCCCC3)CC2)cc1[N+](=O)[O-] | 3.32 µM |
| O=C(Nc1ccccc1N1CCCC1)c1cc(Cl)ccc1Cl | > 70 µM (inactive) |
| O=C(CCS(=O)(=O)c1ccccc1)N(CCCN1CCOCC1)c1nc2ccccc2s1 | 14.2 µM |

| SMILES | AC50 |
| --- | --- |
| C[C@H]1CN([C@@H](C)CO)C(=O)Cc2cc(NC(=O)Nc3ccccc3)ccc2O[C@H]1CN(C)Cc1ccccc1 | > 70 µM (inactive) |
| O=C(CCc1nc(-c2ccccc2F)no1)Nc1ccc(Oc2ccccc2)cc1 | > 70 µM (inactive) |
| CCOc1ccc(CCN2C(=O)C(=O)N([C@@H](CC(C)C)CN3CCC[C@@H]3CN3C(=O)C(=O)NC[C@@H]3Cc3ccccc3)C[C@@H]2Cc2ccc(O)cc2)cc1 | 38.1 µM |
| CCN1C[C@]2(COC(=O)c3ccccc3N)CC[C@H](OC)C34[C@@H]5C[C@H]6[C@H](OC)[C@@H]5[C@](O)(C[C@@H]6OC)[C@@](O)([C@H]13)[C@@H](OC)[C@@H]42 | > 70 µM (inactive) |
| C[C@@H]1CN([C@H](C)CO)C(=O)c2cccc(NS(C)(=O)=O)c2O[C@H]1CN(C)Cc1ccc(Oc2ccccc2)cc1 | > 70 µM (inactive) |
| CC(=O)c1cc(-c2ccccc2)n(CC(=O)Nc2cccc(C)c2)c1C | > 70 µM (inactive) |
| Oc1cccc(-c2nc3c4c(ncn3n2)-c2ccccc2CC42CCCC2)c1 | 14.3 µM |
| O=C(NCc1ccccc1CN1CCCC1)c1cc2ccccc2o1 | > 70 µM (inactive) |
| Cn1cnnc1Sc1ccc(/C=C/C(=O)c2ccc(O)cc2)cc1[N+](=O)[O-] | 12.3 µM |
| C[C@H]1CN([C@@H](C)CO)C(=O)c2cc(NC(=O)Cc3cn(C)c4ccccc34)ccc2O[C@@H]1CN(C)S(=O)(=O)c1ccc(F)cc1 | > 70 µM (inactive) |
| O=C(Nc1nc2ccccc2s1)c1cccc(S(=O)(=O)N2CCc3ccccc32)c1 | > 70 µM (inactive) |
| O=S(=O)(Nc1ccc(C(O)(C(F)(F)F)C(F)(F)F)cc1)c1ccc(Cl)c2nonc12 | 9.47 µM |
| C[C@@H]1CN([C@H](C)CO)C(=O)c2cccc(NS(C)(=O)=O)c2O[C@@H]1CN(C)Cc1ccc(Oc2ccccc2)cc1 | > 70 µM (inactive) |
| CCOc1cc(N2CCOCC2)c(OCC)cc1NC(=O)Cc1ccccc1OC | 39.5 µM |
| Cc1sc(NC(=O)CCl)c(C(=O)c2ccccc2)c1C | 15.4 µM |
| O=C(Nc1ccc(Br)cc1F)c1cccnc1 | > 70 µM (inactive) |
| COC1/C=C/C=C(\C)Cc2cc(O)c(Cl)c(c2)N(C)C(=O)CC(OC(=O)C(C)C)C2(C)OC2C(C)C2CC1(O)NC(=O)O2 (configuration not stated) | > 70 µM (inactive) |
| CCCCC(=O)OC1CCC2C3CCc4cc(O)ccc4C3CCC12C (configuration not stated) | 27.3 µM |
| CN(C)CCCN(C(=O)c1ccc(S(=O)(=O)N2CCCc3ccccc32)cc1)c1nc2ccc(F)cc2s1 | 18.2 µM |
| COCCN(CC(=O)Nc1ccccc1C(F)(F)F)C(=O)/C=C/c1cc(Cl)c2c(c1)OCCO2 | > 70 µM (inactive) |
| CCOC(=O)c1c(CN(C)C)n(-c2ccc(C)cc2)c2cc(Br)c(O)cc12 | > 70 µM (inactive) |
| Cc1ccc(N(Cc2ccccc2)C(=O)c2cccc(S(=O)(=O)N3CC(C)OC(C)C3)c2)cc1 (configuration not stated) | > 70 µM (inactive) |
| CC[C@]12c3[nH]c4cc(-c5ccco5)ccc4c3CCN1C(=O)[C@@H](CC(=O)NCc1ccco1)C[C@@H]2C(=O)N1CCN(C(=O)c2ccco2)CC1 | > 70 µM (inactive) |
| COc1cc(C2C(C#N)=C(N)Oc3cc(O)ccc32)cc(OC)c1OC (configuration not stated) | > 70 µM (inactive) |
| Cc1[nH][nH]c(=O)c1C(c1c(C)[nH][nH]c1=O)c1cn(Cc2ccccc2Cl)c2ccccc12 | > 70 µM (inactive) |
| O=C(NCCc1c[nH]c2ccccc12)/C(=C\c1cccnc1)NC(=O)c1ccccc1Br | > 70 µM (inactive) |
